These results are taken from patent publication US8603976B2, “Methods of enhancing functioning of the large intestine” (1149336 Ontario, Inc., priority 1997, dated 2013).

Common to all, as to format: in vivo
One assay has as its system mice. Put plainly: Mortality in mice exposed to 10% colitis-inducing dextran sulfate (Example 3). The note with it: 10% dextran sulfate in drinking water, 2.5 μg per injection s.c. twice per day, after 9 days; saline group 3 of 10. The method, then:
Mice were also treated with 2 subcutaneous injections per day (0.5 ml) of either saline, or [GLY^2]hGLP-2, 2.5 μg per injection. After 9 days, the experiment was stopped.

Assay [1] deals with Female CD1 mice. Put plainly: 5% dextran sulfate induced ulcerative colitis model in mice (Example 2). An excerpt:
This experiment was designed to test the activity of GLP-2 in ameliorating disease symptoms in an animal model of colitis. A 5% dextran sulfate solution was used to induce ulcerative colitis in test mice (Okayasu et al., 1990, 98:694-702).
Forty female CD1 mice (six-weeks old and approximately 25 g, obtained from Charles River) were used in the experiment. On day 1, the mice were weighed using a Mettler PJ300 scale and randomly allocated to 1 of eight treatment groups. The groups, each consisting of 5 mice housed together, were treated as follows:
These two groups were fed normal drinking water.
Group 1) Ten days of injections (PBS), day 7 to day 17, animals sacrificed day 17.
Group 2) Ten days of injections human (Gly 2) GLP-2 (2.5 μg bid), day 7 to day 17, animals sacrificed day 17.
Groups 3 and 4—Test Group
Drinking water given to these groups contained 5% Dextran sulfate (DS).
Group 3) DS given from day 7 to day 17, PBS injections given from day 7 to day 17, animals sacrificed day 17.
Group 4) DS given from day 7 to day 17, human[Gly^2] GLP-2 (2.5 μg bid) injections given day 7 to day 17, animals sacrificed day 17.
Groups 5 and 6—Test Group
Drinking water contained 5% Dextran sulfate day 2 to day 9, followed by 4 days of normal drinking water. Ten days of injections were started day 4. […]
Dextran sulfate (USB, Cleveland, Ohio, MW 40,000-50,000) was dissolved into double distilled water, and placed into the water bottles. Water bottles were topped up daily. GLP-2 peptide was reconstituted and aliquoted on the day prior to the first day of injection and kept in a −20 C. freezer. Human [Gly^2]GLP-2 (5 mg/mL) was reconstituted in PBS. One microliter of 5N NaOH was required to dissolve the peptide in a volume of 1 ml. The injection volume of 0.5 ml was constant throughout the experiment using ½ cc U-100 Insulin Syringes Becton Dickinson and Company, NJ). Control mice (cage 1) received the same volume (0.5 ml) of phosphate buffered saline (PBS—137 mM NaCl, 2.7 mM KCl, 4.3 mM Na2HPO4.7H2O, 1.4 mM KH2PO4, pH 7.3).
Subcutaneous injections in the right hind quarter began on various days depending on the treatment conditions given above. All injections were twice a day, at 8 am and 6 pm. Mice in cages 1 and 2 were fasted on the day prior to sacrifice. Body weight measurements were made on day 1, day 7, day 12 and the day of sacrifice. The weight and length of the large intestine of each animal was measured after sacrifice.

For assay [2], the system named is Female CD1 mice. Put plainly: Effect of GLP-2 on small and large intestinal mass and protein content in mice (Example 1). The settings on record: 2.5 μg twice daily subcutaneously for 10 days. The method, then: In this experiment, the effect of GLP-2 on both small and large intestinal mass, as well as the relative contribution of water to the increment in intestine weight, was examined.
Female CD1 mice (6 weeks old) were treated with rat GLP-2, 2.5 μg twice daily (subcutaneously) for 10 days. Following treatment, mice were fasted 24 hours, anesthetized with CO2 and sacrificed. The small and large intestine was removed from the peritoneal cavity (from pylorus to cecum), cleaned, weighed and measured. For comparative purposes, 2 cm segments of proximal jejunum, ileum and colon were obtained from each animal from the identical anatomical positions (as measured from the pylorus and cecum) and analyzed for protein content, wet weight and dry weight (expressed as mean±S.E.M in mg/2 cm segment).
For protein content, two 2 cm segments from the proximal jejunum, ileum and colon were removed, placed in 13 ml tubes containing 2 ml of PBS, homogenized for 20 seconds in a Brinkmann Homogenizer and placed on ice. The tubes were centrifuged for 5 min. at 1000 g and 100 μl aliquots of supernatant homogenate removed for determination of protein content using the modified Bradford method.
To measure wet and dry weight, 2 cm intestinal segments were weighed, placed in culture tubes, reweighed, then freeze-dried overnight in a Fast-Freeze flask (Labconco) and reweighed.

The mark [3] stands for this setting: 5% DS day 7 to day 17, 2.5 μg bid s.c. day 7 to day 17, group 4 vs group 3 (PBS).
Setting [4] is: normal drinking water, 2.5 μg bid s.c. for ten days, group 2 vs group 1 (PBS).
Setting [5] is: 2 cm segment, vs PBS-treated mice, p<0.05.

Turning to “[Gly^2]hGLP-2: human GLP-2 wherein the alanine at position 2 is replaced by a glycine; DPP-IV resistant analog (HGDGSFSDEMNTILDNLAARDFINWLIQTKITD; Glucagon-like peptide 2; UniProt P01275 146-178, looked up, variant A2G)”, in the assay with mice, the survival is 7 of 10. Further, in the assay with Female CD1 mice [1] (setting [3]), the “body weight through the course of the experiment” value is “maintain body weight better” and the “large intestine weight at sacrifice” value is recorded as “significantly heavier large intestines”. The “large intestine length during experimentally induced colitis” value in the assay on Female CD1 mice [1] (5% DS day 7 to day 17, 2.5 μg bid s.c., group 4 vs group 3 (PBS)) is recorded as “also exhibited, although to a lesser degree”. Also, in the assay with Female CD1 mice [1] (agonist given at the same time as 5% DS, day 7 to day 17, group 4 vs group 3), the “morbidity, dehydration and reduction in mass of the large intestine caused by induced colitis” value was “ameliorates the severe morbidity, dehydration, and reduction in mass of the large intestine”. Further, in the assay on Female CD1 mice [1] (setting [4]), the large intestine length entry is given as “significant increase in large intestine length” and the “post-treatment large intestinal mass” value is “causes an increase in large intestinal mass”.

For the substance “rat GLP-2: rat GLP-2, 33 amino acid peptide having the sequence SEQ ID NO: 2; used in Example 1 (HADGSFSDEMNTILDNLATRDFINWLIQTKITD; listed as Rattus sp.)”, in the assay with Female CD1 mice [2] (setting [5]), the “dry weight of intestinal segments from the proximal jejunum” value is “significantly increased” and the “wet weight of intestinal segments from the proximal jejunum” value is given as “significantly increased”. Besides, the “weights of the segments obtained from the colon” value in the assay on Female CD1 mice [2] (2 cm segment, wet and dry weight) is reported as “slightly, but consistently, increased”. Also, in the assay on Female CD1 mice [2] (compared to PBS-treated mice), the “protein content in the colon” value was “statistically significant increase” and the “protein content in the jejunum” value was “statistically significant increase”.
